Reference: patent publication US20060002960A1 (priority 2003, published 2006)
Several values for one entry are separate records, joined by “and”; a condition that tells them apart may be missing. Equal values may be shown once. Read-outs that look alike come from different tables or passages of the source.

Columns and labels:
LT or CT = conditions: cited from earlier work
C57B1/6 mice [1] = conditions: mouse, in vivo
mice [2] = conditions: mouse, in vivo
C57B1/6 mice [3] = conditions: mouse, in vivo; remark: listed apart in the source
C57B1/6 mice [4] = conditions: mouse, in vivo; remark: listed apart in the source
C57B1/6 mice [5] = conditions: mouse, in vivo; remark: listed apart in the source
C57B1/6 mice [6] = conditions: mouse, in vivo; remark: listed apart in the source
C57B1/6 mice [7] = conditions: mouse, in vivo; remark: listed apart in the source
C57B1/6 mice [8] = conditions: mouse, in vivo; remark: listed apart in the source
mice [9] = conditions: mouse, in vivo; remark: listed apart in the source
Y-1 adrenal cells = format: cell-based
Balb/c mice = conditions: mouse, in vivo, po
C57B1/6 mice [10] = conditions: mouse, in vivo; remark: listed apart in the source
[11] = cited from earlier work
mice [12] = conditions: mouse, in vivo; remark: listed apart in the source
mice [13] = conditions: mouse, in vivo; remark: listed apart in the source

With `O=[N+]([O-])c1cccc(OC2OC(CO)C(O)C(O)C2O)c1` (stereo not drawn) [m-nitrophenyl α-galactoside] as the molecule, how does the IC50 (LT or CT) read?
Its IC50 is 600 to 700 µM.

For `O=C(O)[C@H](O)[C@@H](O)[C@H](O)[C@H](O)CO[C@H]1O[C@H](CO)[C@H](O)[C@H](O)[C@H]1O` [melibionic acid], which IC50 (LT or CT) is on record?
The IC50 was 5000 to 11000 µM.

For `Nc1ccc(OC2OC(CO)C(O)C(O)C2O)cc1` (stereo not drawn) [p-aminophenyl α-galactoside], which IC50 (LT or CT) is on record?
The IC50 was 4800 to 12000 µM.

What does the source list for “Escherichia coli heat-labile enterotoxin [LT]”?
anti-OVA antibody titers GMT (C57B1/6 mice [1]): 32,000; inflammatory response after IM injection (mice [2]): swelling of the thigh muscle; inflammatory response after SC injection (mice [2]; sc): formation of a large nodule; anti-TT IgG titers GMT (C57B1/6 mice [3]): 150,000; anti-TT titers (C57B1/6 mice [3]): significantly increased; lymph node cell response to re-stimulation with OVA or LT (C57B1/6 mice [4]): did respond to in vitro re-stimulation with OVA or LT by producing IFN-γ and IL-4; spleen cell IFN-γ response to re-stimulation (C57B1/6 mice [4]): did respond to re-stimulation by producing IFN-γ; anti-LT antibody titers GMT (C57B1/6 mice [5]): 196,000; TT IgG, Assay values (Elisa Units) Individual Mice (C57B1/6 mice [6]): 188314 Elisa Units and 222731 Elisa Units and 178753 Elisa Units and 88333 Elisa Units and 192934 Elisa Units and 201494 Elisa Units and 169482 Elisa Units and 379919 Elisa Units and 73992 Elisa Units and 615173 Elisa Units and 204102 Elisa Units and 146225 Elisa Units and 183724 Elisa Units and 323948 Elisa Units and 202170 Elisa Units and 185486 Elisa Units and 85832 Elisa Units and 163652 Elisa Units and 208284 Elisa Units and 83436 Elisa Units and 63293 Elisa Units and 50116 Elisa Units and 121818 Elisa Units and 176340 Elisa Units and 114780 Elisa Units and 131805 Elisa Units and 6246 Elisa Units and 11745 Elisa Units and 31797 Elisa Units; anti-TT IgG GMT (C57B1/6 mice [6]): 282,000; fold greater anti-TT IgG titers than the non-adjuvanted group (C57B1/6 mice [6]): 34 fold; immune response to co-administered TT (C57B1/6 mice [6]): significantly enhanced; Anti-OVA titers GMT (C57B1/6 mice [7]): 51,000; anti-LT IgG titers GMT (C57B1/6 mice [7]): 30,000; fold increase of Anti-OVA titers (C57B1/6 mice [7]): 37 fold; histological examination of injection site (C57B1/6 mice [8]): elicited an inflammatory response that persisted for days; mice with inflammatory response (C57B1/6 mice [8]): 4 of 7; persistence of induration (C57B1/6 mice [8]): greater than 2 weeks; skin nodules (incidence, words) (C57B1/6 mice [8]): did not cause skin nodules in six out of the seven injected mice; skin nodules / inflammatory response after intradermal injection (C57B1/6 mice [8]): caused skin nodules in all mice; toxin-induced inflammation (C57B1/6 mice [8]): completely abolished; times more IFNγ and IL4 producing lymphocytes compared to TT alone (mice [9]): 10 times; rounding of cultured cells (Y-1 adrenal cells): 70-100%; percentage of rounded cells (Y-1 adrenal cells; 0.05 ng/ml, 6-8 h): −−− (key: +++ 70-100% rounded cells; ++ 50-75%; + 25-50%; −−− <25%); percentage of rounded cells (Y-1 adrenal cells; 0.1 ng/ml, 6-8 h): −−− (key: +++ 70-100% rounded cells; ++ 50-75%; + 25-50%; −−− <25%); percentage of rounded cells (Y-1 adrenal cells; 0.2 ng/ml, 6-8 h): + (key: +++ 70-100% rounded cells; ++ 50-75%; + 25-50%; −−− <25%); percentage of rounded cells (Y-1 adrenal cells; 0.4 ng/ml, 6-8 h): ++ (key: +++ 70-100% rounded cells; ++ 50-75%; + 25-50%; −−− <25%); percentage of rounded cells (Y-1 adrenal cells; 0.8 ng/ml, 6-8 h): +++ (key: +++ 70-100% rounded cells; ++ 50-75%; + 25-50%; −−− <25%); percentage of rounded cells (Y-1 adrenal cells; 1.6 ng/ml, 6-8 h): +++ (key: +++ 70-100% rounded cells; ++ 50-75%; + 25-50%; −−− <25%); percentage of rounded cells (Y-1 adrenal cells; 3.1 ng/ml, 6-8 h): +++ (key: +++ 70-100% rounded cells; ++ 50-75%; + 25-50%; −−− <25%); percentage of rounded cells (Y-1 adrenal cells; 6.3 ng/ml, 6-8 h): +++ (key: +++ 70-100% rounded cells; ++ 50-75%; + 25-50%; −−− <25%); percentage of rounded cells (Y-1 adrenal cells; 12.5 ng/ml, 6-8 h): +++ (key: +++ 70-100% rounded cells; ++ 50-75%; + 25-50%; −−− <25%); percentage of rounded cells (Y-1 adrenal cells; 25 ng/ml, 6-8 h): +++ (key: +++ 70-100% rounded cells; ++ 50-75%; + 25-50%; −−− <25%); percentage of rounded cells (Y-1 adrenal cells; 50 ng/ml, 6-8 h): +++ (key: +++ 70-100% rounded cells; ++ 50-75%; + 25-50%; −−− <25%); percentage of rounded cells (Y-1 adrenal cells; 100 ng/ml, 6-8 h at 37° C.): +++ (key: +++ 70-100% rounded cells; ++ 50-75%; + 25-50%; −−− <25%); fold increase in G:C compared to the buffer control group (Balb/c mice): 2.4 fold; Flu A IgG, Assay values (Elisa Units) Individual Mice (C57B1/6 mice [10]): 150 Elisa Units and 102 Elisa Units and 47 Elisa Units and 45 Elisa Units and 642 Elisa Units and 15498 Elisa Units and 3137 Elisa Units and 6852 Elisa Units and 18563 Elisa Units and 28151 Elisa Units; Kd [11]: 0.0007 µM; examination of the injection sites (mice [12]): developed edema and inflammation at the site of injection

With “Gal-β1,3-GalNAc-β1,4-(NeuAc-α2,3)-Gal-β1,4-Glc-β1,1-ceramide [GM1]” as the molecule, how does the Kd (LT or CT; read-out: affinity) read?
The Kd was 0.0001 to 0.01 µM.

And the “Diameter skin nodules, Average Mean ± SD” value (C57B1/6 mice [8])?
The value was 0 cm.

And the “Diameter skin nodules, Individual Mice” value (C57B1/6 mice [8])?
The value was 0 cm.

What about the “skin nodules / inflammatory response after intradermal injection” value (C57B1/6 mice [8]) of the same molecule?
Its value is “not inflammatory”.

Which “TT IgG, Assay values (Elisa Units) Individual Mice” value (mice [13]) does the source give for cholera toxin [CT] here?
The value was 71077 Elisa Units and 113082 Elisa Units and 75238 Elisa Units and 123721 Elisa Units and 61438 Elisa Units.

What about the “TT IgG, Geometric mean” value (mice [13]) of the same molecule?
The value was 85603 Elisa Units.

And the “fold higher antibody titers to TT than the non-adjuvanted vaccine” value (mice [13])?
The value was 426 fold.

And the “inflammatory response after IM injection” value (mice [2])?
Its value is “muscle swelling”.

What about the “TT IgG, Assay values (Elisa Units) Individual Mice” value (C57B1/6 mice [6]) of the same molecule?
Its value is 11222 Elisa Units and 14300 Elisa Units and 29533 Elisa Units and 63092 Elisa Units and 125687 Elisa Units.

And the “TT IgG, Geometric mean” value (C57B1/6 mice [6])?
Its value is 32734 Elisa Units.

What about the “fold greater antibody titers to TT than the non-adjuvanted vaccine” value (C57B1/6 mice [6]) of the same molecule?
Its value is 105 fold.

And the “skin nodules / inflammatory response after intradermal injection” value (C57B1/6 mice [8])?
The value was “skin nodules”.

And the Kd [11]?
Its Kd is 0.0006 µM.

And the “TT IgG, Geometric mean” value (mice [12])?
Its value is 95419 Elisa Units.

What about the “fold higher titers than the non-adjuvanted vaccine” value (mice [12]) of the same molecule?
Its value is 823 fold.

What about the “fold more active than CT/GM1” value (mice [12]) of the same molecule?
The value was 1.6 to 3 fold.
